# Experimental data from patent publication US8772293B2, “Chemical compounds” (Pfizer Limited, priority 2010, dated 2014).
# Counter-ions that a name gives are not always drawn.
# Molecular target: T1, Nav1.7 (or SCN9A) channel (Homo sapiens, UniProt Q15858)
# T1 construct: expressed in transfected cells
# Experiment: Nav1.7 (hSCN9A) PatchXpress electrophysiology in HEK cells
# Type: cell-based
# Conditions: PatchXpress platform; HEK cells stably expressing hSCN9A; held at V1/2 of inactivation; calculated from single point % inhibition; read-out: Nav1.7 EIC50 (estimated IC-50)
# Protocol: The ability of the compounds of formula (I) to block the Nav1.7 (or SCN9A) channel were measured using the assay described below.
# Human Embryonic Kidney (HEK) cells were transfected with an hSCN9A construct using lipofectamine reagent (Invitrogen), using standard techniques. Cells stably expressing the hSCN9A constructs were identified by their resistance to G-418 (400 μg/ml). Clones were screened for expression using the whole-cell voltage-clamp technique.
# HEK cells stably transfected with hSCN9A were maintained in DMEM medium supplemented with 10% heat-inactivated fetal bovine serum and 400 µg/ml G-418 in an incubator at 37° C. with a humidified atmosphere of 10% CO2. For HTS, cells were harvested from flasks by trypsinization and replated in an appropriate multi-well plate (typically 96 or 384 wells/plate) such that confluence would be achieved within 24 hours of plating. For electrophysiological studies, cells were removed from the culture flask by brief trypsinization and re-plated at low density onto glass cover slips. Cells were typically used for electrophysiological experiments within 24 to 72 hours after plating.
# Cover slips containing HEK cells expressing hSCN9A were placed in a bath on the stage of an inverted microscope and perfused (approximately 1 ml/minutes) with extracellular solution of the following composition: 138 mM NaCl, 2 mM CaCl2, 5.4 mM KCl, 1 mM MgCl2, 10 mM glucose, and 10 mM HEPES, pH 7.4, with NaOH. […] The osmolarity of the extracellular and intracellular solutions was 300 mOsm/kg and 295 mOsm/kg, respectively. All recordings were made at room temperature (22-24° C.) using AXOPATCH 200B amplifiers and PCLAMP software (Axon Instruments, Burlingame, Calif.).
# hSCN9A currents in HEK cells were measured using the whole-cell configuration of the patch-clamp technique (Hamill et al., 1981). Uncompensated series resistance was typically 2 to 5 mega ohms and >85% series resistance compensation was routinely achieved. As a result, voltage errors were negligible and no correction was applied. Current records were acquired at 20 to 50 KHz and filtered at 5 to 10 KHz.
# HEK cells stably transfected with hSCN9A were viewed under Hoffman contrast optics and placed in front of an array of flow pipes emitting either control or compound-containing extracellular solutions. All compounds were dissolved in dimethyl sulfoxide to make 10 mM stock solutions, which were then diluted into extracellular solution to attain the final concentrations desired. […] The voltage-dependence of inactivation was determined by applying a series of depolarizing prepulses (8 sec long in 10 mV increments) from a negative holding potential. The voltage was then immediately stepped to 0 mV to assess the magnitude of the sodium current. Currents elicited at 0 mV were plotted as a function of prepulse potential to allow estimation of the voltage at which 50% of the channels were inactivated (midpoint of inactivation or V1/2). Compounds were tested for their ability to inhibit hSCN9A sodium channels by activating the channel with a 20 msec voltage step to 0 mV following an 8 second conditioning prepulse to the empirically determined V1/2. Compound effect (% inhibition) was determined by difference in current amplitude before and after application of test compounds. For ease of comparison, “estimated IC-50” (EIC50) values were calculated from single point electrophysiology data by the following equation, (tested concentration, uM)×(100-% inhibition/% inhibition). Inhibition values <20% and >80% were excluded from the calculation.
# Electrophysiological assays were conducted with PatchXpress 7000 hardware and associated software (Molecular Devices Corp). All assay buffers and solutions were identical to those used in conventional whole-cell voltage clamp experiments described above. hSCN9A cells were grown as above to 50%-80% confluency and harvested by trypsinization. […]
# T1 sequence (Q15858 whole entry): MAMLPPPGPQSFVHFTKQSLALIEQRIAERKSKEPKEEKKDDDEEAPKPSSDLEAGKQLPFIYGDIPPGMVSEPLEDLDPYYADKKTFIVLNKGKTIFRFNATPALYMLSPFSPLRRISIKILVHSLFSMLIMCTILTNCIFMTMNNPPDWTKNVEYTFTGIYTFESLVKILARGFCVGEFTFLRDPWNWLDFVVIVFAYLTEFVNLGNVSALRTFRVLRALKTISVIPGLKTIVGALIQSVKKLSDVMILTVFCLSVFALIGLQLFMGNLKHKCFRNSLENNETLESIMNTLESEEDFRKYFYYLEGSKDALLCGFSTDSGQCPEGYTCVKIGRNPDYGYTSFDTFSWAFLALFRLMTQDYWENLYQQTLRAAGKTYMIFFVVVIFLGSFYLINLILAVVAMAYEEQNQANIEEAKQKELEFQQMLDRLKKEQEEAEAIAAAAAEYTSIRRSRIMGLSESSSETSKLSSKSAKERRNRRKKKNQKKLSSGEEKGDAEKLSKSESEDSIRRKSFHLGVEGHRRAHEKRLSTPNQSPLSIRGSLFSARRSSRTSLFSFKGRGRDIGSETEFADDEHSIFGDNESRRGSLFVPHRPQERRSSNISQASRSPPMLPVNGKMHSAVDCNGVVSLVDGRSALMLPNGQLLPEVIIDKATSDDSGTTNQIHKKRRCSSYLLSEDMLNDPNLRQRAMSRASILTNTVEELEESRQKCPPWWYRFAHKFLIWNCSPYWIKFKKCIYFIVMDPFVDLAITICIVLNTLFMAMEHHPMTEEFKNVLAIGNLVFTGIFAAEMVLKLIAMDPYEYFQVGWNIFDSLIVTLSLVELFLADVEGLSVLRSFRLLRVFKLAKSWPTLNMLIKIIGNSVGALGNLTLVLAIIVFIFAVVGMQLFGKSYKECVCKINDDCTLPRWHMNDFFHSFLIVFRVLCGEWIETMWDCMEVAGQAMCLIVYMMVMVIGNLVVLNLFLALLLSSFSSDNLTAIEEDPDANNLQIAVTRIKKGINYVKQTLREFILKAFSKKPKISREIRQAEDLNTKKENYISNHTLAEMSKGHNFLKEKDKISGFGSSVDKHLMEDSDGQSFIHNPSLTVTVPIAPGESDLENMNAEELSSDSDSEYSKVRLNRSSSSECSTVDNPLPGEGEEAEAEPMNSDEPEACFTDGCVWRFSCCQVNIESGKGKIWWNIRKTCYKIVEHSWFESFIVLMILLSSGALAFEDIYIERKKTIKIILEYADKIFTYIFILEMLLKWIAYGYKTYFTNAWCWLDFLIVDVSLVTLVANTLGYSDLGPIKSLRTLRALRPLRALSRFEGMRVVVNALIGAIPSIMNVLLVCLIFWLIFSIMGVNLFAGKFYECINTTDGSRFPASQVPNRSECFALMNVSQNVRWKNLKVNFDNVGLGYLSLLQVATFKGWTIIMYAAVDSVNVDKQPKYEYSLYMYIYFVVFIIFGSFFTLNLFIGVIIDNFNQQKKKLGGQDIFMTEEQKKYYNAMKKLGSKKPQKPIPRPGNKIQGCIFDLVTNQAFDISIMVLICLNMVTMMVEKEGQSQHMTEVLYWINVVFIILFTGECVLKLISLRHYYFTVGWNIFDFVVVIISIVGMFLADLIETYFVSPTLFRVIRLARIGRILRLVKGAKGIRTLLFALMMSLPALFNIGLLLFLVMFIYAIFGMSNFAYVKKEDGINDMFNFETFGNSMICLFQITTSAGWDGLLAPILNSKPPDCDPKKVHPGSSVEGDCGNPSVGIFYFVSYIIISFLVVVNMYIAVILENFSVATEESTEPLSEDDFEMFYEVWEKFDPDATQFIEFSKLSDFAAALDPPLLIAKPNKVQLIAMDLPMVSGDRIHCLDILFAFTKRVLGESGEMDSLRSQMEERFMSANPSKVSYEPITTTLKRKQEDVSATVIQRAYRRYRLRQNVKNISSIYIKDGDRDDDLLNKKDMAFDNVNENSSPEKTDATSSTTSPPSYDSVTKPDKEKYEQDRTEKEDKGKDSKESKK
row,IC50 [nM],Compound
1,2.3,"O=S(=O)(Nc1nncs1)c1cc(Cl)c(Oc2cc(Cl)c(-c3cccc(F)c3)cc2-c2ccnnc2)cc1F [Example 26, 5-Chloro-4-{[2-chloro-3′-fluoro-5-(pyridazin-4-yl)biphenyl-4-yl]oxy}-2-fluoro-N-(1,3,4-thiadiazol-2-yl)benzenesulfonamide]"
2,0.9,"O=S(=O)(Nc1nncs1)c1cc(Cl)c(Oc2cc(Cl)c(-c3ccccc3F)cc2-c2ccnnc2)cc1F [Example 27, 5-Chloro-4-{[2-chloro-2′-fluoro-5-(pyridazin-4-yl)biphenyl-4-yl]oxy}-2-fluoro-N-(1,3,4-thiadiazol-2-yl)benzenesulfonamide]"
3,0.9,"O=S(=O)(Nc1nncs1)c1cc(Cl)c(Oc2cc(Cl)c(-c3cccc(C(F)(F)F)c3)cc2-c2ccnnc2)cc1F [Example 28, 5-Chloro-4-{[2-chloro-5-(pyridazin-4-yl)-3′-(trifluoromethyl)biphenyl-4-yl]oxy}-2-fluoro-N-(1,3,4-thiadiazol-2-yl)benzenesulfonamide]"
4,0.8,"O=S(=O)(Nc1nncs1)c1cc(Cl)c(Oc2ccc(-c3ccc(Cl)c(C(F)(F)F)c3)cc2-c2ccnnc2)cc1F [Example 29, 5-Chloro-4-{[4′-chloro-3-(pyridazin-4-yl)-3′-(trifluoromethyl)biphenyl-4-yl]oxy}-2-fluoro-N-(1,3,4-thiadiazol-2-yl)benzenesulfonamide]"
5,23,"O=S(=O)(Nc1nncs1)c1cc(Cl)c(Oc2ccc(-c3ccc(C(F)(F)F)nc3)cc2-c2ccnnc2)cc1F [Example 30, 5-Chloro-2-fluoro-4-{2-(pyridazin-4-yl)-4-[6-(trifluoromethyl)pyridin-3-yl]phenoxy}-N-(1,3,4-thiadiazol-2-yl)benzenesulfonamide]"
6,16,"O=S(=O)(Nc1nncs1)c1cc(Cl)c(Oc2ccc(-c3cccc(C(F)(F)F)n3)cc2-c2ccnnc2)cc1F [Example 31, 5-Chloro-2-fluoro-4-{2-(pyridazin-4-yl)-4-[6-(trifluoromethyl)pyridin-2-yl]phenoxy}-N-(1,3,4-thiadiazol-2-yl)benzenesulfonamide]"
7,5.3,"N#Cc1cccc(-c2ccc(Oc3cc(F)c(S(=O)(=O)Nc4nncs4)cc3Cl)c(-c3c[nH]nc3N)c2)c1 [Example 32, 4-{[3-(5-Amino-1H-pyrazol-4-yl)-3′-cyanobiphenyl-4-yl]oxy}-5-chloro-2-fluoro-N-(1,3,4-thiadiazol-2-yl)benzenesulfonamide]"
8,16,O=S(=O)(Nc1nncs1)c1cc(Cl)c(Oc2ccc(-c3ccnc(C(F)(F)F)c3)cc2-c2ccnnc2)cc1F [Example 33]
9,0.5,"O=S(=O)(Nc1nncs1)c1cc(Cl)c(Oc2ccc(-c3ccc(C(F)(F)F)cc3)cc2-c2ccnc(N3CCNCC3)c2)cc1F [Example 34, 5-Chloro-2-fluoro-4-({3-[2-(piperazin-1-yl)pyridin-4-yl]-4′-(trifluoromethyl)biphenyl-4-yl}oxy)-N-(1,3,4-thiadiazol-2-yl)benzenesulfonamide, hydrochloride]"
10,2.2,"O=S(=O)(Nc1ccncn1)c1cc(Cl)c(Oc2ccc(-c3ccc(C(F)(F)F)cc3)cc2-c2ccnc(N3CCNCC3)c2)cc1F [Example 35, 5-Chloro-2-fluoro-4-({3-[2-(piperazin-1-yl)pyridin-4-yl]-4′-(trifluoromethyl)biphenyl-4-yl}oxy)-N-(pyrimidin-4-yl)benzenesulfonamide hydrochloride salt]"
11,11,"O=S(=O)(Nc1nncs1)c1cc(Cl)c(Oc2cc(-c3cccc(F)c3)c(Cl)cc2-c2ccnnc2)cc1F [Example 36, 5-Chloro-4-[(6-chloro-3′-fluoro-4-pyridazin-4-ylbiphenyl-3-yl)oxy]-2-fluoro-N-1,3,4-thiadiazol-2-ylbenzenesulfonamide]"
12,12,"O=S(=O)(Nc1nncs1)c1cc(Cl)c(Oc2cc(-c3ccc(F)cc3)c(Cl)cc2-c2ccnnc2)cc1F [Example 37, 5-Chloro-4-[(6-chloro-4′-fluoro-4-pyridazin-4-ylbiphenyl-3-yl)oxy]-2-fluoro-N-1,3,4-thiadiazol-2-ylbenzenesulfonamide]"
13,18,"O=S(=O)(Nc1nncs1)c1cc(Cl)c(Oc2cc(-c3ccccc3F)c(Cl)cc2-c2ccnnc2)cc1F [Example 38, 5-Chloro-4-[(6-chloro-2′-fluoro-4-pyridazin-4-ylbiphenyl-3-yl)oxy]-2-fluoro-N-1,3,4-thiadiazol-2-ylbenzenesulfonamide]"
14,7.7,"N#Cc1cccc(-c2ccc(Oc3cc(F)c(S(=O)(=O)Nc4nncs4)cc3Cl)c(-c3ccnnc3)c2)c1 [Example 39, 5-chloro-4-[(3′-cyano-3-pyridazin-4-ylbiphenyl-4-yl)oxy]-2-fluoro-N-1,3,4-thiadiazol-2-ylbenzenesulfonamide]"
15,1,"O=S(=O)(Nc1ncccn1)c1cc(Cl)c(Oc2ccc(-c3ccc(C(F)(F)F)cc3)cc2-c2ccnc(N3CCNCC3)c2)cc1F [Example 40, 5-chloro-2-fluoro-4-{[3-(2-piperazin-1-ylpyridin-4-yl)-4′-(trifluoromethyl)biphenyl-4-yl]oxy}-N-pyrimidin-2-ylbenzenesulfonamide]"
